This is an account of results in US11802120B2, “Fused cyclic urea derivatives as CRHR2 antagonist” (RaQualia Pharma Inc., priority 2018, dated 2023).

What all share (type): cell-based
One test concerns the target T1, human CRHR1-beta (Homo sapiens, UniProt P34998).
T1 sequence (P34998 24-444 isoform P34998-1 limits assumed): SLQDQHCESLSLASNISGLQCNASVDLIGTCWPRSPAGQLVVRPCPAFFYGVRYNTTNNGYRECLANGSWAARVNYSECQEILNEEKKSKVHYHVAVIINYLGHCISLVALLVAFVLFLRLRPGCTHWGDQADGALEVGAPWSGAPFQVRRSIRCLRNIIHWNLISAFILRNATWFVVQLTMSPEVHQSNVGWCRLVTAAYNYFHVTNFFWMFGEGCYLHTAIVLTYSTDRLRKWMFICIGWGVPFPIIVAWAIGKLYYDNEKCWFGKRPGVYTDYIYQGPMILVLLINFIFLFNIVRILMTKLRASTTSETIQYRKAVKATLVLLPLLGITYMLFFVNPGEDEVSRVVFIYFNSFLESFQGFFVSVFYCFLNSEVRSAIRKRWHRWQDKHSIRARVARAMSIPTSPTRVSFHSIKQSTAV
Description: cAMP functional assay for human CRHR1 (LANCE Ultra cAMP, TR-FRET). Conditions: CHO-K1 cells expressing human CRHR1-beta, agonist CRF at EC80, cAMP; read-out: IC50 against CRHR1. Here is the method:
cAMP functional assay for human CRHR1 and CRHR2
The ability of the compounds of this invention to inhibit either CRHR2 or CRHR1 is assessed by 3′,5′-cyclic adenosine monophosphate (cAMP) production in cells using the LANCE Ultra cAMP assay kit (ParkinElmer), which are designed based on the homogeneous time-resolved fluorescence resonance energy transfer (TR-FRET) immunoassay.
CHO-K1 (Chinese hamster ovary) cells stably expressing either human CRHR2-alpha (DiscoveRX, Cat. 95-0048C2) or human CRHR1-beta (DiscoveRX, Cat. 95-0047C2) are grown in HAM's F12 media supplemented with 10% fetal bovine serum (FBS), 100 units/mL penicillin, 100 microg/mL hygromycin and 0.5 microg/mL geneticin at 37° C. in 5% CO2 humidified incubator to 80% confluence. After 7 hours starvation treatment in culture media containing 0.1% FBS, the cells are washed with Hanks balanced salt solution (HBSS) and cryopreserved.
For cAMP assay, frozen cells are thawed and washed with HBSS, followed by resuspended in assay buffer (HBSS containing 0.1% bovine serum albumin, 0.5 mM isobutylmethylxanthine and 5 mM Hepes, pH 7.4) at the appropriate concentration for the assay. The cell suspensions are plated on 384-well microplates (Greiner Bio-One) at a density of 4,000 cells per well. After preincubating the cells with various concentrations of the compounds for 30 min at 25° C., an assay buffer containing EC80 concentration of each agonist is added and the cells are incubated for 30 min at 25° C. Human urocortin2 (Peptide Institute) and CRF (Peptide Institute) are used as agonists for CRHR2 and CRHR1, respectively. For the termination of assay, europium-labeled cAMP tracer and ULight (registered trademark) dye labeled cAMP antibodies, both prepared with Lance-Ultra cAMP detection reagent (Perkin Elmer) are added in the plate and incubate for 60 min at 25° C. After incubation, TR-FRET signal is detected by EnVision plate reader (PerkinElmer). The IC50 values for compounds are calculated from dose-response curves by fitting the percent inhibition using XLfit (ID Business Solutions).
A general note: Time-resolved FRET reads energy transfer from a long-lived donor to a nearby acceptor.

The next test addresses T2, human CRHR2-alpha (Homo sapiens, UniProt Q13324).
T2 sequence (Q13324 1-411): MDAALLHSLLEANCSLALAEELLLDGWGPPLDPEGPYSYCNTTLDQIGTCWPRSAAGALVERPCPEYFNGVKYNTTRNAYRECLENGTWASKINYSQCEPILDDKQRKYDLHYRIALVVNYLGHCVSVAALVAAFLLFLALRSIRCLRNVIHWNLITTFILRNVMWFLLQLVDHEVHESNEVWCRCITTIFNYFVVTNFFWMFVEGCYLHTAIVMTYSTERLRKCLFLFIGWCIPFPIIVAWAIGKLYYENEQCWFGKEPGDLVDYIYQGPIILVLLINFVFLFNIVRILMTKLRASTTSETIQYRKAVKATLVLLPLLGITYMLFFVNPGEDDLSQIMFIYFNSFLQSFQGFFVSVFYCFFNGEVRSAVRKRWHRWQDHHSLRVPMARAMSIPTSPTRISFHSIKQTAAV
The test can be described thus: cAMP functional assay for human CRHR2 (LANCE Ultra cAMP, TR-FRET). Conditions: CHO-K1 cells expressing human CRHR2-alpha, agonist human urocortin2 at EC80, cAMP; read-out: IC50 against CRHR2. In outline:
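Antagonism measured in CHO-K1 cells stably expressing the receptor, serum-starved 7 h then cryopreserved. Thawed cells in HBSS buffer with 0.1% BSA, 0.5 mM IBMX, 5 mM Hepes pH 7.4 were preincubated with compound 30 min at 25° C, then stimulated 30 min with EC80 agonist: urocortin2 for CRHR2, CRF for CRHR1.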

Another test has as its target T3, CRHR2 (Homo sapiens, UniProt Q13324).
T3 sequence (Q13324 1-411): T2 sequence (Q13324 1-411)
The test can be described thus: CRHR2 antagonistic activity (inhibitory activity against CRHR2).

pIC50: −log10 of the molar value. Where only a bound is given, the exact number is not on record here.

By pIC50 is commonly meant −log10 of the IC50, conventionally taken in molar units. Regarding `COc1ccc(-n2c(=O)n(C[C@H]3CC[C@H](NC(=O)c4cc(Cl)cnc4C)CC3)c3ccccc32)cn1` [Example 30, 5-chloro-N-((1r,4r)-4-((3-(6-methoxypyridin-3-yl)-2-oxo-2,3-dihydro-1H-benzo[d]imidazol-1-yl)methyl)cyclohexyl)-2-methylnicotinamide], the negative logarithm of the IC50 (pIC50) at human CRHR1-beta is > 6.00; at human CRHR2-alpha it was > 6.52; at CRHR2, 7.22.
